What all share (type): cell-based
For assay [1], the system named is RPMI 1788 (B lymphocyte, normal human lymphoblastoid cells). The assay can be described thus: MTT assay on normal cells RPMI 1788. The procedure: (§1) To determine the selectivity of the synthesized compounds 7–16 toward various cancer cells and normal human cells, the anti-proliferative activity against K562 (chronic myelogenous leukemia), HL-60 (promyelocytic leukemia), MCF-7 (breast adenocarcinoma), HeLa (cervix carcinoma), HepG2 (human liver cancer), A549 (lung carcinoma), OKP-GS (renal cell carcinoma), and normal cells RPMI 1788 (B lymphocyte, the human cell line) was investigated.
(§2) Each in vitro experiment was performed at least in triplicate and the standard deviation of absorbance was less than 10% of the mean. For the in vitro assays, a stock solution (1% DMSO in the appropriate buffer with the tested compound diluted under sonication) was prepared from which several dilutions were made with the appropriate buffer.
Human cell lines were obtained from the Institute of Cytology, Russian Academy of Sciences. The cell lines studied were maintained in RPMI 1640 medium (AppliChem, Darmstadt, Germany) supplemented with 20% (HL-60, RPMI 1788) fetal calf serum (HyClone, Cramlington, UK), in DMEM (A 549) and Eagle’s MEM (AppliChem) (MCF7, HeLa) with 10% fetal calf serum (HyClone). Cells were cultivated at 37 °C in a humidified atmosphere of 5% CO2. Cellular sensitivities to synthesized compounds and standards were measured with the MTT assay. Cells were plated in triplicate in 96-well plates (10^5 cells/well for suspended cell cultures and 5 × 10^3 cells/well for monolayer cultures); on the same day (suspended cell cultures) or on the following day (monolayer cultures), compounds were added at the appropriate dilutions. […] The reference drugs were imatinib, sorafenib and nilotinib. Plates were incubated under standard conditions for 48 h. Thereafter, 10 μL MTT (Sigma) in phosphate-buffered saline (5 mg/mL) was added. The plates were incubated for an additional 4 h and 150 μL dimethylsulphoxide (DMSO) was added to dissolve the formazan crystals. The optical density was read on a HALO MPR-95 Microplate Reader (Dynamica Scientific Ltd., Melbourne, Victoria, Australia) at 570 nm. The antiproliferative effects were taken as degrees of inhibition of tumor cells (%). The average of three parallel measurements was calculated for each concentration of test compound. The degree of cell growth suppression was plotted as a function of the logarithm of the concentration. The half maximal inhibitory concentration (IC50) was determined graphically for active compounds.

Assay [2] deals with HL-60 (promyelocytic leukemia). Nature of the assay: MTT anti-proliferative assay, HL-60. To be noted: Homo sapiens, 48 h. The procedure:
(§3) For the in vitro assays, a stock solution (1% DMSO in the appropriate buffer with the tested compound diluted under sonication) was prepared from which several dilutions were made with the appropriate buffer.
(§4) Human cell lines were obtained from the Institute of Cytology, Russian Academy of Sciences. […] Plates were incubated under standard conditions for 48 h.
Background: Formazan colour is commonly taken as a measure of viable cells.

Assay [3] concerns K562 (chronic myelogenous leukemia). The assay can be described thus: MTT anti-proliferative assay, K562. To be noted: Homo sapiens, 48 h. The procedure: as §3, §4
Assay [4] relates to OKP-GS (renal cell carcinoma). Nature of the assay: MTT anti-proliferative assay, OKP-GS. To be noted: Homo sapiens, 48 h. The procedure:
as §1, §2
Human cell lines were obtained from the Institute of Cytology, Russian Academy of Sciences. The cell lines studied were maintained in RPMI 1640 medium (AppliChem, Darmstadt, Germany) supplemented with 20% (HL-60, RPMI 1788) fetal calf serum (HyClone, Cramlington, UK), in DMEM (A 549) and Eagle’s MEM (AppliChem) (MCF7, HeLa) with 10% fetal calf serum (HyClone). Cells were cultivated at 37 °C in a humidified atmosphere of 5% CO2. Cellular sensitivities to synthesized compounds and standards were measured with the MTT assay. Cells were plated in triplicate in 96-well plates (10^5 cells/well for suspended cell cultures and 5 × 10^3 cells/well for monolayer cultures); on the same day (suspended cell cultures) or on the following day (monolayer cultures), compounds were added at the appropriate dilutions. Anti-proliferative activity was studied at concentrations 0.1–50.0 µM. The reference drugs were imatinib, sorafenib and nilotinib. Plates were incubated under standard conditions for 48 h. Thereafter, 10 μL MTT (Sigma) in phosphate-buffered saline (5 mg/mL) was added. The plates were incubated for an additional 4 h and 150 μL dimethylsulphoxide (DMSO) was added to dissolve the formazan crystals. The optical density was read on a HALO MPR-95 Microplate Reader (Dynamica Scientific Ltd., Melbourne, Victoria, Australia) at 570 nm. The antiproliferative effects were taken as degrees of inhibition of tumor cells (%). The average of three parallel measurements was calculated for each concentration of test compound. The degree of cell growth suppression was plotted as a function of the logarithm of the concentration. The half maximal inhibitory concentration (IC50) was determined graphically for active compounds.

In general, inhibition refers to the change of the read-out against control, counted positive when it falls. Low readings indicate little suppression, high ones strong suppression. A word on the IC50: it is the concentration that gives 50% inhibition.

A value given as a limit tells only on which side of the number the result lay.

For `Cc1cn(-c2cc(NC(=O)c3ccc(C)c(Nc4nccc(-c5cccnc5)n4)c3)cc(C(F)(F)F)c2)cn1` [Nilotinib, nilotinib, reference compound], the inhibition at 100 µM in assay [1] is 71%. Further, the IC50 was 55 µM in assay [2], under 0.1 µM in assay [3] and 55 µM in assay [4].

(Values after publication PMC8657793, “Synthesis, In Vitro and In Silico Anticancer Activity of New 4-Methylbenzamide Derivatives Containing 2,6-Substituted Purines as Potential Protein Kinases Inhibitors” (International Journal of Molecular Sciences, 2021).)
